Columns and labels:
Type in all cases: in vivo
[1] = tested on: barnyardgrass (Echinochloa crus-galli); test: Test B preemergence; conditions: scale 0 to 100, 0 no effect, 100 complete control
Summary of the method: (§1)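 Post-treatment, species sat 13–15 days under greenhouse conditions before visual scoring against controls, 0 (no effect) through 100 (complete control). Application preemergence to sown seeds or postemergence at 1- to 4-leaf stage, using a non-phytotoxic solvent/surfactant formulation.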

[2] = tested on: crabgrass (Digitaria sanguinalis); test: Test B preemergence; conditions: preemergence; Rate 125 g/ha; scale 0 to 100, 0 no effect, 100 complete control
Summary of the method: as §1

[3] = tested on: cocklebur (Xanthium strumarium); test: Test B preemergence; conditions: scale 0 to 100, 0 no effect, 100 complete control
Summary of the method: as §1

rice (Oryza saliva) = test: Test B preemergence; conditions: scale 0 to 100, 0 no effect, 100 complete control
Summary of the method: as §1

[4] = tested on: giant foxtail (Setaria faberii); test: Test B preemergence; conditions: scale 0 to 100, 0 no effect, 100 complete control
Summary of the method: as §1

[5] = tested on: pigweed (Amaranthus retroflexus); test: Test B preemergence; conditions: scale 0 to 100, 0 no effect, 100 complete control
Summary of the method: as §1

[6] = tested on: velvetleaf (Abutilon theophrasti); test: Test B preemergence; conditions: scale 0 to 100, 0 no effect, 100 complete control
Summary of the method: as §1

[7] = tested on: Surinam grass (Brachiaria decumbens); test: Test B preemergence; conditions: scale 0 to 100, 0 no effect, 100 complete control
Summary of the method: as §1

[8] = tested on: morning glory (Ipomoea hederacea); test: Test B preemergence; conditions: scale 0 to 100, 0 no effect, 100 complete control
Summary of the method: as §1

corn (Zea mays) = test: Test B preemergence; conditions: scale 0 to 100, 0 no effect, 100 complete control
Summary of the method: as §1

[9] = tested on: crabgrass (Digitaria sanguinalis); test: Test C preemergence
Text: (§2) Seeds of plant species selected from bermudagrass (Cynodon dactylon), Surinam grass (Brachiaria decumbens), cocklebur (Xanthium strumarium), corn (Zea mays), crabgrass (Digitaria sanguinalis), woolly cupgrass (Eriochloa villosa), giant foxtail (Setaria faberii), goosegrass (Eleusine indica), johnsongrass (Sorghum halepense), kochia (Kochia scoparia), lambsquarters (Chenopodium album), morningglory (Ipomoea hederacea), yellow nutsedge (Cyperus esculentus), pigweed (Amaranthus retroflexus), common ragweed (Ambrosia elatior), soybean (Glycine max) and velvetleaf (Abutilon theophrasti) were planted and treated preemergence with test chemicals formulated in a non-phytotoxic solvent mixture which included a surfactant.
(§3) At the same time, plants selected from these crop and weed species and also winter barley (Hordeum vulgare), blackgrass (Alopecurus myosuroides), canary grass (Phalaris minor), chickweed (Stellaria media), downy brome (Bromus tectorum), green foxtail (Setaria viridis), Italian ryegrass (Lolium multiflorum), wheat (Triticum aestivum), wild oat (Avena fatua) and windgrass (Apera spica-venti) were treated with postemergence applications of some of the test chemicals formulated in the same manner. Plants ranged in height from 2 to 18 cm (1- to 4-leaf stage) for postemergence treatments. Plant species in the flooded paddy test consisted of rice (Oryza saliva), smallflower flatsedge (Cyperus difformis), duck salad (Heteranthera limosa) and barnyardgrass (Echinochloa crus-galli) grown to the 2-leaf stage for testing. Treated plants and controls were maintained in a greenhouse for 12 to 14 days, after which time all species were compared to controls and visually evaluated. Plant response ratings, summarized in Table C, are based on a scale of 0 to 100 where 0 is no effect and 100 is complete control. A dash (-) response means no test result.

[10] = tested on: cocklebur (Xanthium strumarium); test: Test C preemergence
Text: as §2, §3

[11] = tested on: giant foxtail (Setaria faberii); test: Test C preemergence
Text: as §2, §3

[12] = tested on: goosegrass (Eleusine indica); test: Test C preemergence
Text: as §2, §3

[13] = tested on: bermudagrass (Cynodon dactylon); test: Test C preemergence
Text: as §2, §3

[14] = tested on: velvetleaf (Abutilon theophrasti); test: Test C preemergence
Text: as §2, §3

[15] = tested on: Surinam grass (Brachiaria decumbens); test: Test C preemergence
Text: as §2, §3

[16] = tested on: morningglory (Ipomoea hederacea); test: Test C preemergence
Text: as §2, §3

Sunflower [17] = test: Test C preemergence
Text: as §2, §3

Sunflower [18] = test: Test C preemergence; conditions: Rate 250 g/ha, visual evaluation after 12 to 14 days
[19] = Preemergence, Rate 500 g/ha, scale 0 to 100
[20] = Rate 62 g/ha, scale 0 to 100, 0 no effect, 100 complete control
[21] = preemergence, Rate 250 g/ha, visual evaluation after 12 to 14 days
[22] = preemergence, Rate 125 g/ha, scale 0 to 100, 0 no effect, 100 complete control

CCC(C)c1ccn(C2SCN(c3cccc(C(F)(F)F)c3)C2=O)n1 (stereo not drawn) [Compound 20]
70: Plant response rating, Foxtail, Giant ([4]; preemergence, Rate 125 g/ha) | Plant response rating, Bermudagrass [13, 20] | Plant response rating, Sunflower (Sunflower [17]; Rate 500 g/ha, scale 0 to 100)
50: Plant response rating, Cocklebur [10, 19]
20: Plant response rating, Velvetleaf [14, 19] | Plant response rating (0 to 100), Velvetleaf [14, 21]
80: Plant response rating, Goosegrass [12, 20]
40: Plant response rating, Surinam grass [15, 19] | Plant response rating, Morningglory [16, 19] | Plant response rating (0 to 100), Morningglory [16, 21]
60: Plant response rating (0 to 100), Sunflower (Sunflower [18])
100: Plant response rating, Barnyardgrass ([1]; Preemergence, Rate 500 g/ha) | Plant response rating, Foxtail, Giant ([4]; Preemergence, Rate 500 g/ha) | Plant response rating, Pigweed ([5]; Preemergence, Rate 500 g/ha) | Plant response rating, Crabgrass [9, 19] | Plant response rating (0 to 100), Crabgrass [9, 21] | Plant response rating, Crabgrass [9, 22] | Plant response rating (0 to 100), Foxtail, Giant [11, 21] | Plant response rating, Goosegrass [12, 19] | Plant response rating (0 to 100), Goosegrass [12, 21] | Plant response rating, Goosegrass [12, 22] | Plant response rating, Bermudagrass [13, 19] | Plant response rating (0 to 100 where 0 is no effect and 100 is complete control), Bermudagrass [13, 21] | Plant response rating, Bermudagrass [13, 22]
30: Plant response rating, Morningglory [16, 22]
0: Plant response rating, Barnyardgrass ([1]; preemergence, Rate 125 g/ha) | Plant response rating, Crabgrass [2] | Plant response rating, Cocklebur ([3]; Preemergence, Rate 500 g/ha) | Plant response rating, Cocklebur ([3]; preemergence, Rate 125 g/ha) | Plant response rating, Rice (rice (Oryza saliva); Preemergence, Rate 500 g/ha) | Plant response rating, Rice (rice (Oryza saliva); preemergence, Rate 125 g/ha) | Plant response rating, Pigweed ([5]; preemergence, Rate 125 g/ha) | Plant response rating, Velvetleaf ([6]; Preemergence, Rate 500 g/ha) | Plant response rating, Velvetleaf ([6]; preemergence, Rate 125 g/ha) | Plant response rating, Surinam grass ([7]; Preemergence, Rate 500 g/ha) | Plant response rating, Surinam grass ([7]; preemergence, Rate 125 g/ha) | Plant response rating, Morningglory ([8]; Preemergence, Rate 500 g/ha) | Plant response rating, Morningglory ([8]; preemergence, Rate 125 g/ha) | Plant response rating, Corn (corn (Zea mays); Preemergence, Rate 500 g/ha) | Plant response rating, Corn (corn (Zea mays); preemergence, Rate 125 g/ha) | Plant response rating, Crabgrass [9, 20] | Plant response rating, Cocklebur [10, 20] | Plant response rating (0 to 100), Cocklebur [10, 21] | Plant response rating, Cocklebur [10, 22] | Plant response rating, Foxtail, Giant [11, 19] | Plant response rating, Foxtail, Giant [11, 20] | Plant response rating, Foxtail, Giant [11, 22] | Plant response rating, Velvetleaf [14, 20] | Plant response rating, Velvetleaf [14, 22] | Plant response rating, Surinam grass [15, 20] | Plant response rating (0 to 100), Surinam grass [15, 21] | Plant response rating, Surinam grass [15, 22] | Plant response rating, Morningglory [16, 20] | Plant response rating, Sunflower (Sunflower [17]; [20])

Source: patent publication US7138361B2, “Herbicidal heterocycles” (E. I. du Pont de Nemours and Company, priority 2000, dated 2006)
